Data: patent publication US20230276831A1, “Food/Beverage Article” (Kikkoman Corporation, priority 2020, published 2023)

What was measured:
[1] = tested on: Lactobacillus rennini (DSM 20253); experiment: Antimicrobial action of licoricidin in soy sauce at various pH (Test Example 5); assay type: cell-based; design: key: A: The bacterial count decreases to less than 10% of the bacterial count of the control group.; B: The bacterial count decreases to 10% or more and less than 50% of the bacterial count of the control group.; C: The bacterial count decreases to 50% or more and less than 100% of the bacterial count of control group.; D: The bacterial count is the same as the bacterial count of the control group; details: salt 4% (w/v)
Procedure: Commercially available whole soybean soy sauce (produced by Kikkoman Corporation) was electrodialyzed and then concentrated under reduced pressure to obtain soy sauce at a salt concentration of 0% (w/v) and an alcohol concentration of 0% (v/v). Then, salt and/or alcohol was added to the above-mentioned obtained soy sauce, and hydrochloric acid or an aqueous sodium hydroxide solution was then added to adjust the pH to a desired pH. Germfree purified water was added, and the mixture was then heat-treated to produce soy sauce at the salt concentration, the alcohol concentration, and the pH shown in the following Table 17.
Licoricidin (produced by ChemFaces) was added to each of the obtained soy sauces to concentrations of 1 ppm, 5 ppm, 10 ppm, 25 ppm, and 50 ppm. Lactic acid bacteria (Lactobacillus rennini (DSM 20253)) were then added to 10^6 to 10^7 cells/mL and cultured at 30° C. for 7 days. After the culture, the number of lactic acid bacteria was measured using the GAM agar medium “Nissui”. Soy sauce to which licoricidin was not added was used as a control group, and the antimicrobial activity was evaluated in comparison with the number of lactic acid bacteria in the control group. The evaluation was performed using the same criterion as in Test Example 4.

[2] = tested on: Bacillus coagulans (IFO12714); experiment: Antimicrobial action of licoricidin on flat sour bacteria in Japanese seasoned soup stock (Test Example 8); assay type: cell-based; design: key to Evaluation (antimicrobial activity by comparing the pHs): A: There is no change in pH as compared with the control.; B: The pH decreases as compared with the control; details: for pH: Japanese seasoned soup stock (salt 3% (w/v), alcohol 0.4% (v/v), pH 5.2), cultured at 45° C. for 7 days; for Evaluation (antimicrobial activity by comparing the pHs): Japanese seasoned soup stock
Procedure: Specifically, components contained in dried bonito was extracted with water; Koikuchi soy sauce (produced by Kikkoman Corporation), sugar, and salt were blended with the obtained extract; and the resulting mixture was heated to produce Japanese seasoned soup stock. The salt concentration of the obtained Japanese seasoned soup stock was 3% (w/v), the alcohol concentration was 0.4% (v/v), and the pH was 5.2.
Licoricidin (produced by ChemFaces) was added to the produced Japanese seasoned soup stock to concentrations of 1 ppm, 5 ppm, 10 ppm, 25 ppm, and 50 ppm. Flat sour bacteria (Bacillus coagulans (IFO12714)) were then added to 10^4 to 10^5 cells/mL and cultured at 45° C. for 7 days. Japanese seasoned soup stock to which licoricidin was not added was used as a control, and the antimicrobial activity was evaluated by comparing the pHs. The evaluation was performed using the following criterion.
• A: There is no change in pH as compared with the control. • B: The pH decreases as compared with the control.

## COc1c(CC=C(C)C)c(O)cc2c1C[C@H](c1ccc(O)c(CC=C(C)C)c1O)CO2 [Licoricidin, 4-[(R)-7-hydroxy-5-methoxy-6-(3-methyl-2-butenyl)chroman-3-yl]-2-(3-methyl-2-butenyl)-1,3-benzenediol]
[1]; pH 4.2, alcohol 5% (v/v), licoricidin 1 ppm
  Antimicrobial activity: C (The bacterial count decreases to 50% or more and less than 100% of the bacterial count of control group.)
[1]; pH 4.2, alcohol 5% (v/v), licoricidin 5 ppm
  Antimicrobial activity: A (The bacterial count decreases to less than 10% of the bacterial count of the control group.)
[1]; pH 4.2, alcohol 5% (v/v), licoricidin 10 ppm
  Antimicrobial activity: A (The bacterial count decreases to less than 10% of the bacterial count of the control group.)
[1]; pH 4.2, alcohol 5% (v/v), licoricidin 25 ppm
  Antimicrobial activity: A (The bacterial count decreases to less than 10% of the bacterial count of the control group.)
[1]; pH 4.2, alcohol 5% (v/v), licoricidin 50 ppm
  Antimicrobial activity: A (The bacterial count decreases to less than 10% of the bacterial count of the control group.)
[1]; pH 4.6, alcohol 0% (v/v), licoricidin 1 ppm
  Antimicrobial activity: D
[1]; pH 4.6, alcohol 0% (v/v), licoricidin 5 ppm
  Antimicrobial activity: D
[1]; pH 4.6, alcohol 0% (v/v), licoricidin 10 ppm
  Antimicrobial activity: A (The bacterial count decreases to less than 10% of the bacterial count of the control group.)
[1]; pH 4.6, alcohol 0% (v/v), licoricidin 25 ppm
  Antimicrobial activity: A (The bacterial count decreases to less than 10% of the bacterial count of the control group.)
[1]; pH 4.6, alcohol 0% (v/v), licoricidin 50 ppm
  Antimicrobial activity: A (The bacterial count decreases to less than 10% of the bacterial count of the control group.)
[1]; pH 4.6, alcohol 5% (v/v), licoricidin 1 ppm
  Antimicrobial activity: B (The bacterial count decreases to 10% or more and less than 50% of the bacterial count of the control group.)
[1]; pH 4.6, alcohol 5% (v/v), licoricidin 5 ppm
  Antimicrobial activity: A (The bacterial count decreases to less than 10% of the bacterial count of the control group.)
[1]; pH 4.6, alcohol 5% (v/v), licoricidin 10 ppm
  Antimicrobial activity: A (The bacterial count decreases to less than 10% of the bacterial count of the control group.)
[1]; pH 4.6, alcohol 5% (v/v), licoricidin 25 ppm
  Antimicrobial activity: A (The bacterial count decreases to less than 10% of the bacterial count of the control group.)
[1]; pH 4.6, alcohol 5% (v/v), licoricidin 50 ppm
  Antimicrobial activity: A (The bacterial count decreases to less than 10% of the bacterial count of the control group.)
[1]; pH 5.0, alcohol 0% (v/v), licoricidin 1 ppm
  Antimicrobial activity: B (The bacterial count decreases to 10% or more and less than 50% of the bacterial count of the control group.)
[1]; pH 5.0, alcohol 0% (v/v), licoricidin 5 ppm
  Antimicrobial activity: A (The bacterial count decreases to less than 10% of the bacterial count of the control group.)
[1]; pH 5.0, alcohol 0% (v/v), licoricidin 10 ppm
  Antimicrobial activity: A (The bacterial count decreases to less than 10% of the bacterial count of the control group.)
[1]; pH 5.0, alcohol 0% (v/v), licoricidin 25 ppm
  Antimicrobial activity: A (The bacterial count decreases to less than 10% of the bacterial count of the control group.)
[1]; pH 5.0, alcohol 0% (v/v), licoricidin 50 ppm
  Antimicrobial activity: A (The bacterial count decreases to less than 10% of the bacterial count of the control group.)
[1]; pH 5.0, alcohol 5% (v/v), licoricidin 1 ppm
  Antimicrobial activity: C (The bacterial count decreases to 50% or more and less than 100% of the bacterial count of control group.)
[1]; pH 5.0, alcohol 5% (v/v), licoricidin 5 ppm
  Antimicrobial activity: A (The bacterial count decreases to less than 10% of the bacterial count of the control group.)
[1]; pH 5.0, alcohol 5% (v/v), licoricidin 10 ppm
  Antimicrobial activity: A (The bacterial count decreases to less than 10% of the bacterial count of the control group.)
[1]; pH 5.0, alcohol 5% (v/v), licoricidin 25 ppm
  Antimicrobial activity: A (The bacterial count decreases to less than 10% of the bacterial count of the control group.)
[1]; pH 5.0, alcohol 5% (v/v), licoricidin 50 ppm
  Antimicrobial activity: A (The bacterial count decreases to less than 10% of the bacterial count of the control group.)
[1]; pH 5.4, alcohol 0% (v/v), licoricidin 1 ppm
  Antimicrobial activity: B (The bacterial count decreases to 10% or more and less than 50% of the bacterial count of the control group.)
[1]; pH 5.4, alcohol 0% (v/v), licoricidin 5 ppm
  Antimicrobial activity: A (The bacterial count decreases to less than 10% of the bacterial count of the control group.)
[1]; pH 5.4, alcohol 0% (v/v), licoricidin 10 ppm
  Antimicrobial activity: A (The bacterial count decreases to less than 10% of the bacterial count of the control group.)
[1]; pH 5.4, alcohol 0% (v/v), licoricidin 25 ppm
  Antimicrobial activity: A (The bacterial count decreases to less than 10% of the bacterial count of the control group.)
[1]; pH 5.4, alcohol 0% (v/v), licoricidin 50 ppm
  Antimicrobial activity: A (The bacterial count decreases to less than 10% of the bacterial count of the control group.)
[1]; pH 5.4, alcohol 5% (v/v), licoricidin 1 ppm
  Antimicrobial activity: C (The bacterial count decreases to 50% or more and less than 100% of the bacterial count of control group.)
[1]; pH 5.4, alcohol 5% (v/v), licoricidin 5 ppm
  Antimicrobial activity: A (The bacterial count decreases to less than 10% of the bacterial count of the control group.)
[1]; pH 5.4, alcohol 5% (v/v), licoricidin 10 ppm
  Antimicrobial activity: A (The bacterial count decreases to less than 10% of the bacterial count of the control group.)
[1]; pH 5.4, alcohol 5% (v/v), licoricidin 25 ppm
  Antimicrobial activity: A (The bacterial count decreases to less than 10% of the bacterial count of the control group.)
[1]; pH 5.4, alcohol 5% (v/v), licoricidin 50 ppm
  Antimicrobial activity: A (The bacterial count decreases to less than 10% of the bacterial count of the control group.)
[1]; pH 5.8, alcohol 0% (v/v), licoricidin 1 ppm
  Antimicrobial activity: D
[1]; pH 5.8, alcohol 0% (v/v), licoricidin 5 ppm
  Antimicrobial activity: A (The bacterial count decreases to less than 10% of the bacterial count of the control group.)
[1]; pH 5.8, alcohol 0% (v/v), licoricidin 10 ppm
  Antimicrobial activity: A (The bacterial count decreases to less than 10% of the bacterial count of the control group.)
[1]; pH 5.8, alcohol 0% (v/v), licoricidin 25 ppm
  Antimicrobial activity: A (The bacterial count decreases to less than 10% of the bacterial count of the control group.)
[1]; pH 5.8, alcohol 0% (v/v), licoricidin 50 ppm
  Antimicrobial activity: A (The bacterial count decreases to less than 10% of the bacterial count of the control group.)
[1]; pH 5.8, alcohol 5% (v/v), licoricidin 1 ppm
  Antimicrobial activity: D
[1]; pH 5.8, alcohol 5% (v/v), licoricidin 5 ppm
  Antimicrobial activity: D
[1]; pH 5.8, alcohol 5% (v/v), licoricidin 10 ppm
  Antimicrobial activity: A (The bacterial count decreases to less than 10% of the bacterial count of the control group.)
[1]; pH 5.8, alcohol 5% (v/v), licoricidin 25 ppm
  Antimicrobial activity: A (The bacterial count decreases to less than 10% of the bacterial count of the control group.)
[1]; pH 5.8, alcohol 5% (v/v), licoricidin 50 ppm
  Antimicrobial activity: A (The bacterial count decreases to less than 10% of the bacterial count of the control group.)
[2]; licoricidin 1 ppm
  pH: 4.1
  Evaluation (antimicrobial activity by comparing the pHs): B
[2]; licoricidin 5 ppm
  pH: 4.1
  Evaluation (antimicrobial activity by comparing the pHs): B
[2]; licoricidin 10 ppm
  pH: 5.3
  Evaluation (antimicrobial activity by comparing the pHs): A
[2]; licoricidin 25 ppm
  pH: 5.3
  Evaluation (antimicrobial activity by comparing the pHs): A
[2]; licoricidin 50 ppm
  pH: 5.2
  Evaluation (antimicrobial activity by comparing the pHs): A
[2]; conclusion of Test Example 8
  Antimicrobial activity to flat sour bacteria: exhibited antimicrobial activity
